In brackets after ≈: the same amount, converted by molar mass. Entries after “also recorded” stand apart in the source; their conditions may differ. Read-outs that look alike come from different tables or passages of the source.
Legend:
[1] = target: T1, M. tuberculosis topoisomerase I (MtbTopI) (Mycobacterium tuberculosis, UniProt P9WG49); assay: MtbTopI relaxation inhibition assay; type: biochemical; conditions: 12.5 nM enzyme, supercoiled pBAD/Thio plasmid, 37 °C 30 min, agarose gel
T1 construct: made in house
T1 sequence (P9WG49 whole entry): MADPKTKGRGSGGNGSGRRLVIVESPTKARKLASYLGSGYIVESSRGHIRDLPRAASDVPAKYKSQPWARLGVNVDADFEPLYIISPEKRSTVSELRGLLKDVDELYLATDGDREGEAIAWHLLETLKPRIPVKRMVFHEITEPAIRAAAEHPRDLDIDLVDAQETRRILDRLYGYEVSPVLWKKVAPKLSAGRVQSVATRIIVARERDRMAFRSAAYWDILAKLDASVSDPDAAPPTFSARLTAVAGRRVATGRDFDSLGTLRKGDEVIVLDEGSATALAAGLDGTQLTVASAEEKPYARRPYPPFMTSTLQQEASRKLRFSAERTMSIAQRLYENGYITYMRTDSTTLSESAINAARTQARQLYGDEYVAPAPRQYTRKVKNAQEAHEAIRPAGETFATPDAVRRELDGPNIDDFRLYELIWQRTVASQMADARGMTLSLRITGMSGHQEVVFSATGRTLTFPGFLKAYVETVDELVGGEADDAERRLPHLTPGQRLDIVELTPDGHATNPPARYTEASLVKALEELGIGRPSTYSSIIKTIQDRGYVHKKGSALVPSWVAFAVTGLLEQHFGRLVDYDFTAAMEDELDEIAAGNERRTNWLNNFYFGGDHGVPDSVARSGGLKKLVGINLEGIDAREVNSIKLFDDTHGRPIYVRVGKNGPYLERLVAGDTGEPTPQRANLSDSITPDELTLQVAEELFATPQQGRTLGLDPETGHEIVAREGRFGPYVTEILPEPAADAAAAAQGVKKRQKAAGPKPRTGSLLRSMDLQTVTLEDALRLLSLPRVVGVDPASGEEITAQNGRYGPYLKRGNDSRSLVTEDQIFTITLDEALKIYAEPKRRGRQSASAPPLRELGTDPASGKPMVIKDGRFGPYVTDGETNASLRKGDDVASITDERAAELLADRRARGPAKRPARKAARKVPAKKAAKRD

[2] = target: T2, human topoisomerase I (hTOPI) (Homo sapiens, UniProt P11387); assay: Human topoisomerase I relaxation inhibition assay; type: biochemical; conditions: for IC50: 0.5 U enzyme, supercoiled plasmid, 37 °C 30 min; for Selectivity Score: hTOPI IC50/MtbTopI IC50
T2 construct: purchased TopoGen
T2 sequence (P11387 1-765): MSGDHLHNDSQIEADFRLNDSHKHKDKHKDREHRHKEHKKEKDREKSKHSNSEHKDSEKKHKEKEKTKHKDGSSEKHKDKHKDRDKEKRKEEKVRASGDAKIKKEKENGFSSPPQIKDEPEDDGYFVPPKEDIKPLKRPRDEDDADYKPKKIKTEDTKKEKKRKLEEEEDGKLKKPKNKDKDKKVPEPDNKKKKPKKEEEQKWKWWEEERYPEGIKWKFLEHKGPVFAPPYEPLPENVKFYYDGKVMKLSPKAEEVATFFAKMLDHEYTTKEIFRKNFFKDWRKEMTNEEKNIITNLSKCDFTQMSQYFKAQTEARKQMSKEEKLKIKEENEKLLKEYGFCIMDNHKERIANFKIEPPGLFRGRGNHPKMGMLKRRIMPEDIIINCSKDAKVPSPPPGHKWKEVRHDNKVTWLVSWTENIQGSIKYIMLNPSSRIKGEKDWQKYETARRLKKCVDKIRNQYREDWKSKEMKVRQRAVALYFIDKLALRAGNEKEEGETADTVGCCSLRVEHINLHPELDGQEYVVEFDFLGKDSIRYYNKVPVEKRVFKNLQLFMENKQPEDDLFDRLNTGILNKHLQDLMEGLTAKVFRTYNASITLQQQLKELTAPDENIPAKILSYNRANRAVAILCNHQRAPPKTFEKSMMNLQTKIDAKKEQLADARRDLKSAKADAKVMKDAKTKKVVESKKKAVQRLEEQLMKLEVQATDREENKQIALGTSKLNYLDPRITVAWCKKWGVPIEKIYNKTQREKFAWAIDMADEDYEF
Protocol: Human topoisomerase I assays were carried out in a buffer containing 10 mM Tris-HCl, pH 8.0, 150 mM NaCl, 0.1% BSA, 0.1 mM spermidine, and 5% glycerol. The enzyme (from TopoGen) was diluted in the above buffer and aliquoted into 10 µL samples such that 0.5U was present in each. 0.5 µL of compound at various concentrations was added before the addition of 150 ng of purified pBAD/Thio purified plasmid DNA for a final volume of 20 µL. The samples were incubated for 30 minutes at 37 °C before stopping by the addition of 4 µL of buffer containing 5% SDS, 0.25% bromophenol blue, and 25% glycerol. The samples were analyzed by gel electrophoresis as previously described[23],[38],[39]. The experiments were replicated twice.

[3] = tested on: M. smegmatis transformed with cloning vector (MnoI strain); assay: microbe, parasite or virus in culture; type: cell-based, Mycobacterium smegmatis; conditions: Mycolicibacterium smegmatis
[4] = target: T3, E. coli DNA gyrase (Escherichia coli, UniProt P0AES4+P0AES6); assay: DNA gyrase supercoiling inhibition assay; type: biochemical; conditions: for IC50: 2 U enzyme, relaxed plasmid, 37 °C 30 min
T3 construct: purchased New England BioLabs
T3 sequence (P0AES4 whole entry, one chain of several): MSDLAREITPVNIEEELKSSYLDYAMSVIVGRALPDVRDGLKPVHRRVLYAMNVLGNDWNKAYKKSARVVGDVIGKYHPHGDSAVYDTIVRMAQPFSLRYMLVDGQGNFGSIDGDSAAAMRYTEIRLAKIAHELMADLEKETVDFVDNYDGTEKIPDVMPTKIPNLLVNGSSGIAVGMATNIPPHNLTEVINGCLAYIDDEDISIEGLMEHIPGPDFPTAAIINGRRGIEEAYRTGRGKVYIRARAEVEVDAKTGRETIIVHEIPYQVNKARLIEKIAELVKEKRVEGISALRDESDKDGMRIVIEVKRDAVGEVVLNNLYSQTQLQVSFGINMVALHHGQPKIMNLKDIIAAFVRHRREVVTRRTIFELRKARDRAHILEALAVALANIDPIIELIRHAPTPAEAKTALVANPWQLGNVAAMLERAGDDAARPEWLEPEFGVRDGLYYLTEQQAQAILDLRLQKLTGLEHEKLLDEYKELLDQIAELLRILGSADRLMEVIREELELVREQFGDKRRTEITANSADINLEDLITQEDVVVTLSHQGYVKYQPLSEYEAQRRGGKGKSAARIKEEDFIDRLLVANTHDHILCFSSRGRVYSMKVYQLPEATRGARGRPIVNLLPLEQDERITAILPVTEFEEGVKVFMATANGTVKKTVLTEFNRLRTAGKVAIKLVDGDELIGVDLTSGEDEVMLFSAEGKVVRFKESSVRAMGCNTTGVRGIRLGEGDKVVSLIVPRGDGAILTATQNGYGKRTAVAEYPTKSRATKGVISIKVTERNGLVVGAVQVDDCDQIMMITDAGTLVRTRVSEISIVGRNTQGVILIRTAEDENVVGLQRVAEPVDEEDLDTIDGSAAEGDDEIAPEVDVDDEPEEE
Protocol: E. coli DNA gyrase was obtained from New England BioLabs. Two units of the enzyme were added to a reaction buffer provided by the manufacturer (35 mM Tris-HCl, pH 8.0, 4 mM MgCl2, 24 mM KCl, 2 mM DTT, 1.75 mM ATP, 5 mM spermidine, 0.1 mg/mL BSA, and 6.5% glycerol). 0.5 µL of the compounds dissolved in DMSO or the solvent alone were added to the enzyme mixture. 300 ng of relaxed covalently closed plasmid DNA was then added for a final volume of 20 µL. The reactions were incubated for 30 minutes at 37 °C before termination by the addition of 4 µL of the SDS stop buffer. The samples were then loaded into a 1% agarose gel and run at 25 V overnight. The experiments were replicated twice.

[5] = target: E. coli topoisomerase I (Escherichia coli, UniProt P06612); assay: E. coli topoisomerase I relaxation inhibition assay; type: biochemical; conditions: for Inhibition of E. coli topoisomerase I relaxation activity (in words): Supplementary Fig. S2
E. coli topoisomerase I, sequence (P06612 whole entry): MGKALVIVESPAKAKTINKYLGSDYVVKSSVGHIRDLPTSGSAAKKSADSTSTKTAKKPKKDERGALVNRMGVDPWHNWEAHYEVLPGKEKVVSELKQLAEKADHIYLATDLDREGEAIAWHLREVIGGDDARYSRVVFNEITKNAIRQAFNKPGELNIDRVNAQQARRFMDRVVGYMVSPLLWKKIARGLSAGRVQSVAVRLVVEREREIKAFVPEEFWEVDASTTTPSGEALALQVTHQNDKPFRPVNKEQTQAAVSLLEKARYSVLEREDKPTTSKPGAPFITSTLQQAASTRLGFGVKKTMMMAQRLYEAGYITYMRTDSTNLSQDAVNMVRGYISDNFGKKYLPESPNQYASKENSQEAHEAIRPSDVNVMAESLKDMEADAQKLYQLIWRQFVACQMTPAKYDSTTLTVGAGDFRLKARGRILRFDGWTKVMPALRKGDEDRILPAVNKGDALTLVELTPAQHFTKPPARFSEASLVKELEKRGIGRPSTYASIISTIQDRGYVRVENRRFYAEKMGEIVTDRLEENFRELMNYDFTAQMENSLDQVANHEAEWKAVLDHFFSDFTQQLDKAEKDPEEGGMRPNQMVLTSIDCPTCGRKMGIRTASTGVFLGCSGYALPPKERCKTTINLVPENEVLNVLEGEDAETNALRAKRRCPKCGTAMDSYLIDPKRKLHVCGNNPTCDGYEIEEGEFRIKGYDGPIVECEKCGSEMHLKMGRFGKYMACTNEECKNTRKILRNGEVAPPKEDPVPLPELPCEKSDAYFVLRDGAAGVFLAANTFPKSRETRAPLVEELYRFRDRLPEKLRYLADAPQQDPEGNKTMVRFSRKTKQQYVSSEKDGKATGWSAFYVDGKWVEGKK

[6] = target: T4, human topoisomerase I (Homo sapiens, UniProt P11387); assay: Gel electrophoresis with ethidium bromide of human topoisomerase I reaction products (nicked DNA); type: biochemical; conditions: gel electrophoresis in the presence of ethidium bromide
T4 construct: purchased TopoGen
T4 sequence (P11387 1-765): T2 sequence (P11387 1-765)

[7] = 48 h, read-out: MnoI Growth Inhibition (MIC)
[8] = read-out: MnoI Growth Inhibition with TZ (MIC)

**Q.** With `Cc1c(C(=O)N2CCC(c3nnc(-c4nccc5ccccc45)o3)CC2)oc2ccccc12` [Compound 2] as the compound, how does the IC50 [1] read?
**A.** The IC50 was 62.5 µM.

**Q.** And the IC50 [2]?
**A.** Its IC50 is > 250 µM.

**Q.** What about the “Selectivity Score” value [2] of the same compound?
**A.** Its value is >4.

**Q.** What about the MIC [3, 7] of the same compound?
**A.** Its MIC is 188 µM (≈ 82.2 µg/mL).

**Q.** What about the MIC [3, 8] of the same compound?
**A.** Its MIC is 31.3 µM (≈ 13.7 µg/mL).

**Q.** `COc1ccc2c(c1)NC1(CCN(C(=O)Cc3c[nH]c4ccccc34)CC1)NS2(=O)=O` [Compound 3] was tested. Which IC50 [1] did it give?
**A.** The IC50 was 62.5 µM.

**Q.** What about the IC50 [2] of the same compound?
**A.** The IC50 was > 250 µM.

**Q.** And the “Selectivity Score” value [2]?
**A.** The value was >4.

**Q.** What about the MIC [3, 7] of the same compound?
**A.** Its MIC is 250 µM (≈ 110 µg/mL).

**Q.** And the MIC [3, 8]?
**A.** Its MIC is 31.3 µM (≈ 13.8 µg/mL).

**Q.** How did the IC50 [1] turn out when `Cc1c(C(=O)N2CCC3(CC2)CC(O)(c2ccc(F)cc2)CO3)oc2ccccc12` (centres unmarked) [Compound 4] was run?
**A.** Its IC50 is 125 µM.

**Q.** And the IC50 [2]?
**A.** The IC50 was > 250 µM.

**Q.** What about the “Selectivity Score” value [2] of the same compound?
**A.** Its value is >2.

**Q.** Which IC50 [1] does the source give for `O=C(c1ccc2c(c1)OCO2)N1CCC(Cn2nc(-c3ccc(F)cc3)ccc2=O)CC1` [Compound 5] here?
**A.** Its IC50 is 250 µM.

**Q.** Which IC50 [1] does the source give for `O=C(CN1C(=O)C2C3CCC(C3)C2C1=O)N1CCC2(CC1)Nc1ccccc1-n1cccc12` (centres unmarked) [Compound 6] here?
**A.** Its IC50 is 500 µM.

**Q.** For `Cc1ccc(CN2C[C@]34C=C[C@H](O3)C(C(=O)N3CCn5cccc5C3)C4C2=O)cc1C` (some centres unmarked) [Compound 7], which IC50 [1] is on record?
**A.** Its IC50 is 2 µM.

**Q.** What about the IC50 [2] of the same compound?
**A.** The IC50 was > 500 µM.

**Q.** And the “Inhibition of E. coli DNA gyrase supercoiling activity (in words)” value ([4]; up to 500 µM)?
**A.** Its value is “no inhibition; also recorded: does not inhibit”.

**Q.** And the “Inhibition of E. coli topoisomerase I relaxation activity (in words)” value [5]?
**A.** Its value is “inhibited”.

**Q.** What about the IC50 ([5]; assay conditions as for MtbTopI) of the same compound?
**A.** Its IC50 is 15.6 to 31.3 µM.

**Q.** What about the MIC [3, 7] of the same compound?
**A.** The MIC was > 500 µM.

**Q.** What about the MIC [3, 8] of the same compound?
**A.** The MIC was 500 µM (≈ 209 µg/mL).

**Q.** With `Cc1cc2oc(C(=O)N3CCC(c4nc5ccccc5[nH]4)CC3)c(C)c2cc1C` [Compound 8] as the compound, how does the IC50 [1] read?
**A.** Its IC50 is 62.5 µM.

**Q.** And the IC50 [2]?
**A.** The IC50 was > 500 µM.

**Q.** What about the IC50 [4] of the same compound?
**A.** Its IC50 is > 500 µM.

**Q.** What about the “Inhibition of E. coli topoisomerase I relaxation activity (in words)” value [5] of the same compound?
**A.** Its value is “inhibited”.

**Q.** And the MIC [3, 7]?
**A.** The MIC was > 500 µM.

**Q.** What about the MIC [3, 8] of the same compound?
**A.** Its MIC is 23.4 µM (≈ 9.07 µg/mL).

**Q.** What does the source list for `Cc1ccc2[nH]c(C3CCN(C(=O)c4oc5ccc(C)cc5c4C)CC3)nc2c1` [Compound 9]?
**A.** IC50 [1]: 62.5 µM; IC50 [2]: > 500 µM; IC50 [4]: > 500 µM; Inhibition of E. coli topoisomerase I relaxation activity (in words) [5]: inhibited; MIC [3, 7]: 125 µM (≈ 48.4 µg/mL); MIC [3, 8]: 23.4 µM (≈ 9.07 µg/mL)

**Q.** How did the IC50 [1] turn out when `Cc1ccc2oc(C(=O)N3CCC(O)(c4cccc(C(F)(F)F)c4)CC3)c(C)c2c1` [Compound 10] was run?
**A.** Its IC50 is 62.5 µM.

**Q.** And the IC50 [2]?
**A.** The IC50 was > 500 µM.

**Q.** What about the IC50 [4] of the same compound?
**A.** Its IC50 is > 500 µM.

**Q.** What about the MIC [3, 7] of the same compound?
**A.** The MIC was 125 µM (≈ 52.2 µg/mL).

**Q.** What about the MIC [3, 8] of the same compound?
**A.** Its MIC is 23.4 µM (≈ 9.77 µg/mL).

**Q.** Which IC50 [1] does the source give for `Cc1c(C(=O)N2CCCCC2CCc2ccc(O)cc2)oc2c(F)cccc12` (centres unmarked) [Compound 11] here?
**A.** The IC50 was 62.5 µM.

**Q.** What about the IC50 [2] of the same compound?
**A.** The IC50 was 250 µM.

**Q.** And the IC50 [4]?
**A.** The IC50 was > 500 µM.

**Q.** What about the MIC [3, 7] of the same compound?
**A.** The MIC was 500 µM (≈ 191 µg/mL).

**Q.** And the MIC [3, 8]?
**A.** The MIC was 46.9 µM (≈ 17.9 µg/mL).

**Q.** How did the IC50 [1] turn out when `Cc1ccc2c(C)c(C(=O)N3CCC4(CC(=O)c5ccccc5O4)C3)oc2c1` (centres unmarked) [Compound 12] was run?
**A.** Its IC50 is 62.5 µM.

**Q.** And the IC50 [2]?
**A.** Its IC50 is > 500 µM.

**Q.** And the IC50 [4]?
**A.** The IC50 was > 500 µM.

**Q.** And the MIC [3, 7]?
**A.** Its MIC is > 500 µM.

**Q.** And the MIC [3, 8]?
**A.** The MIC was 500 µM (≈ 188 µg/mL).

**Q.** With `CC[C@@]1(O)C(=O)OCc2c1cc1n(c2=O)Cc2cc3ccccc3nc2-1` [camptothecin] as the compound, how does the “Formation of nicked DNA by human topoisomerase I” value [6] read?
**A.** Its value is “increased nicking of DNA by human topoisomerase I significantly”.
